{"source": "paper PMC11100015", "about": "“Bioluminescence Imaging of Potassium Ion Using a Sensory Luciferin and an Engineered Luciferase” (Journal of the American Chemical Society, 2024)", "molecular_target": "T1, BREP (Oplophorus gracilirostris, UniProt Q9GV45, A31E/Q38R/Q45L/D46S/L54V/A60N/K70R/V71I/A81I/F95D/L99Q/M102K/D112N/I117V/P142E/Q151K/Y165I/C191H/N193R)", "T1 construct": "fusion of mScarlet-I and teLuc (NanoLuc variant) via three-residue linker; recombinant, pBAD/His B, purified; with mScarlet-I red fluorescent protein (engineered RFP, RET acceptor)", "T1 sequence (Q9GV45 28-196 with the stated changes)": "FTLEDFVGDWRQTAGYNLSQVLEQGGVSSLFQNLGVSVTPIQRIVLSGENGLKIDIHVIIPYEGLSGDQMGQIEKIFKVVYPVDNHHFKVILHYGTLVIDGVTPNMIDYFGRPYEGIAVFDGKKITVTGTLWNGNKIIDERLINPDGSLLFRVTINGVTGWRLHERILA", "test": "bioluminescence emission spectra", "assay_type": "biochemical", "conditions": "MOPS pH 7.4; 25 uM potassiorin, 100 nM enzyme"}
{"smiles": "O=c1c(Cc2ccc(OCCn3cc(-c4ccc(N5CCOCCOCCOCCOCCOCC5)cc4)nn3)cc2)nc2c(-c3ccccc3)[nH]c(-c3ccccc3)cn1-2", "note": "[compound 13, potassiorin]", "values": [{"measurement": "bioluminescence emission spectra", "result": "We measured the emission spectra of BREP and potassiorin in the absence and presence"}]}
